Read-outs that look alike come from different tables or passages of the source.
Columns and labels:
Assay type in all cases: cell-based
[1] = target: T1, NR2F6 LBD (Homo sapiens, UniProt P10588); assay: NR2F6 LBD transient transfection; settings: LBD
T1 construct: expressed in transfected cells
T1 sequence (P10588 165-393 limits assumed): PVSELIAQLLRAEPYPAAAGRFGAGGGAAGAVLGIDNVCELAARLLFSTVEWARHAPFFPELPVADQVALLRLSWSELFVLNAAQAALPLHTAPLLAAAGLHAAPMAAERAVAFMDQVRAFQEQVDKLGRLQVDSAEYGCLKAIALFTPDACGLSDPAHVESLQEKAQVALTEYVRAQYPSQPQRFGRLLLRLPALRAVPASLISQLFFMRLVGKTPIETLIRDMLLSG
Outline: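 LBD-transfected cells treated at 40, 10, 2 and 0.5 μM (4 replicates); cytotoxicity measured in parallel, normalized to DMSO (0%) and zero signal (100%). Higher concentrations excluded where signal loss reflected toxicity.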

[2] = tested on: HEK293 pGL4; assay: Firefly_pGL signal, cmpd/DMSO (pGL4 control cells); settings: Homo sapiens
[3] = tested on: Renilla; assay: Renilla signal in NR2F6 agonist screening, cmpd/DMSO; settings: Renilla, F4
[4] = target: T2, NR2F6 (Homo sapiens, UniProt P10588); assay: NR2F6 agonist screening, Firefly signal cmpd/DMSO
T2 construct: expressed in transfected cells; also transient transfection
T2 sequence (P10588 1-404): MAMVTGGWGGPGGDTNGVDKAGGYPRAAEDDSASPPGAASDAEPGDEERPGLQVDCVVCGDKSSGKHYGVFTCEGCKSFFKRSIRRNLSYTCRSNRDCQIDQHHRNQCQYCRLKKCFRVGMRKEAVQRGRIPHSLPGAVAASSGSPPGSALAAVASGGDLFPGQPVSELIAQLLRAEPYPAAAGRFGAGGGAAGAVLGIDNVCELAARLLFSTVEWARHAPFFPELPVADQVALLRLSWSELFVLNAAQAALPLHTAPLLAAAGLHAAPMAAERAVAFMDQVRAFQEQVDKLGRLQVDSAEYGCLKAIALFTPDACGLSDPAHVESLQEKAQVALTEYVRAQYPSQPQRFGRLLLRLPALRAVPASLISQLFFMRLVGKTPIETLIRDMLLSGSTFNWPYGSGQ

[5] = HEK293, 0.5 uM, pGL4, read-out: Firefly pGL4, cmpd/DMSO (mean)
[6] = HEK293, 2 uM, pGL4, read-out: Firefly pGL4, cmpd/DMSO (mean)
[7] = HEK293, 10 uM, pGL4, read-out: Firefly pGL4, cmpd/DMSO (mean)
[8] = HEK293, 40 uM, pGL4, read-out: Firefly pGL4, cmpd/DMSO (mean)
[9] = HEK293, pGL4, 1% FBS, 0.5 uM, read-out: Firefly, pGL4, 1% FBS, cmpd/DMSO (mean)
[10] = HEK293, pGL4, 1% FBS, 2 uM, read-out: Firefly, pGL4, 1% FBS, cmpd/DMSO (mean)
[11] = HEK293, pGL4, 1% FBS, 10 uM, read-out: Firefly, pGL4, 1% FBS, cmpd/DMSO (mean)
[12] = HEK293, pGL4, 1% FBS, 40 uM, read-out: Firefly, pGL4, 1% FBS, cmpd/DMSO (mean)
[13] = HEK293, pGL4, 10% FBS, 0.5 uM, read-out: Firefly, pGL4, 10% FBS, cmpd/DMSO (mean)
[14] = HEK293, pGL4, 10% FBS, 2 uM, read-out: Firefly, pGL4, 10% FBS, cmpd/DMSO (mean)
[15] = HEK293, pGL4, 10% FBS, 10 uM, read-out: Firefly, pGL4, 10% FBS, cmpd/DMSO (mean)
[16] = HEK293, pGL4, 10% FBS, 40 uM, read-out: Firefly, pGL4, 10% FBS, cmpd/DMSO (mean)
[17] = read-out: Renilla, F4, cmpd/DMSO (mean)
[18] = 1% FBS, read-out: Renilla, F4, 1% FBS, cmpd/DMSO (mean)
[19] = 10% FBS, read-out: Renilla, F4, 10% FBS, cmpd/DMSO (mean)

## CC(C)CCN[C@H]1CS(=O)(=O)C[C@@H]1S(=O)(=O)c1cccs1 [Compound D110]
[1]; 0.5 uM
  Firefly LBD, cmpd/DMSO (mean): 1.1
[1]; 2 uM
  Firefly LBD, cmpd/DMSO (mean): 1.4
[1]; 10 uM
  Firefly LBD, cmpd/DMSO (mean): 3.0
[1]; 40 uM
  Firefly LBD, cmpd/DMSO (mean): 0.8
[2]; [5]
  fold induction at 0.5 µM: 1.2
[2]; [6]
  fold induction at 2 µM: 1.4
[2]; [7]
  fold induction at 10 µM: 3.3
[2]; [8]
  fold induction at 40 µM: 0.7
[2]; [9]
  fold induction at 0.5 µM: 1
[2]; [10]
  fold induction at 2 µM: 1.2
[2]; [11]
  fold induction at 10 µM: 1.7
[2]; [12]
  fold induction at 40 µM: 0.8
[2]; [13]
  fold induction at 0.5 µM: 1.2
[2]; [14]
  fold induction at 2 µM: 1.2
[2]; [15]
  fold induction at 10 µM: 1.8
[2]; [16]
  fold induction at 40 µM: 2.6
[3]; [17]
  fold induction at 0.5 µM: 1.1
  fold induction at 2 µM: 1.1
  fold induction at 10 µM: 1.3
  fold induction at 40 µM: 1.4
[3]; [18]
  fold induction at 0.5 µM: 1
  fold induction at 2 µM: 1.1
  fold induction at 10 µM: 1.5
  fold induction at 40 µM: 1.5
[3]; [19]
  fold induction at 0.5 µM: 1
  fold induction at 2 µM: 1
  fold induction at 10 µM: 1.5
  fold induction at 40 µM: 2.4
[4]; 0.5 uM
  Firefly F4, cmpd/DMSO (mean): 1.7
[4]; 2 uM
  Firefly F4, cmpd/DMSO (mean): 1.9
[4]; 10 uM
  Firefly F4, cmpd/DMSO (mean): 3.5
[4]; 40 uM
  Firefly F4, cmpd/DMSO (mean): 1.4
[4]; 1% FBS, 10 uM
  F4, Firefly/Renilla for S/B(F4) > 3: 2.5
  Firefly, F4/pGL4 for S/B(F4) > 3: 2.3
  Firefly, F4, 1% FBS, cmpd/DMSO (mean): 3.8
[4]; 10% FBS, 40 uM
  F4, Firefly/Renilla for S/B(F4) > 3: 2.5
  Firefly, F4/pGL4 for S/B(F4) > 3: 2.3
  Firefly, F4, 10% FBS, cmpd/DMSO (mean): 5.9
[4]; 1% FBS, 0.5 uM
  Firefly, F4, 1% FBS, cmpd/DMSO (mean): 0.8
[4]; 1% FBS, 2 uM
  Firefly, F4, 1% FBS, cmpd/DMSO (mean): 1.4
[4]; 1% FBS, 40 uM
  Firefly, F4, 1% FBS, cmpd/DMSO (mean): 0.8
[4]; 10% FBS, 0.5 uM
  Firefly, F4, 10% FBS, cmpd/DMSO (mean): 1.3
[4]; 10% FBS, 2 uM
  Firefly, F4, 10% FBS, cmpd/DMSO (mean): 1.0
[4]; 10% FBS, 10 uM
  Firefly, F4, 10% FBS, cmpd/DMSO (mean): 2.4

## O=S1(=O)C[C@H](NC2CCCC2)[C@@H](S(=O)(=O)c2ccc(F)cc2)C1 [Compound D114]
[1]; 0.5 uM
  Firefly LBD, cmpd/DMSO (mean): 1.1
[1]; 2 uM
  Firefly LBD, cmpd/DMSO (mean): 1.3
[1]; 10 uM
  Firefly LBD, cmpd/DMSO (mean): 1.9
[1]; 40 uM
  Firefly LBD, cmpd/DMSO (mean): 2.2
[2]; [5]
  fold induction at 0.5 µM: 1.1
[2]; [6]
  fold induction at 2 µM: 1.3
[2]; [7]
  fold induction at 10 µM: 2
[2]; [8]
  fold induction at 40 µM: 2
[2]; [9]
  fold induction at 0.5 µM: 1.1
[2]; [10]
  fold induction at 2 µM: 1.3
[2]; [11]
  fold induction at 10 µM: 1.7
[2]; [12]
  fold induction at 40 µM: 1.5
[2]; [13]
  fold induction at 0.5 µM: 1.3
[2]; [14]
  fold induction at 2 µM: 1.3
[2]; [15]
  fold induction at 10 µM: 1.5
[2]; [16]
  fold induction at 40 µM: 2
[3]; [17]
  fold induction at 0.5 µM: 1
  fold induction at 2 µM: 1.1
  fold induction at 10 µM: 1.2
  fold induction at 40 µM: 1.3
[3]; [18]
  fold induction at 0.5 µM: 1.1
  fold induction at 2 µM: 1.2
  fold induction at 10 µM: 1.7
  fold induction at 40 µM: 1.8
[3]; [19]
  fold induction at 0.5 µM: 0.9
  fold induction at 2 µM: 1
  fold induction at 10 µM: 1.1
  fold induction at 40 µM: 1.5
[4]; 0.5 uM
  Firefly F4, cmpd/DMSO (mean): 1.6
[4]; 2 uM
  Firefly F4, cmpd/DMSO (mean): 1.6
[4]; 10 uM
  Firefly F4, cmpd/DMSO (mean): 2.4
[4]; 40 uM
  Firefly F4, cmpd/DMSO (mean): 3.6
[4]; 10% FBS, 40 uM
  F4, Firefly/Renilla for S/B(F4) > 3: 2.1
  Firefly, F4/pGL4 for S/B(F4) > 3: 1.6
  Firefly, F4, 10% FBS, cmpd/DMSO (mean): 3.2
[4]; 1% FBS, 0.5 uM
  Firefly, F4, 1% FBS, cmpd/DMSO (mean): 1.3
[4]; 1% FBS, 2 uM
  Firefly, F4, 1% FBS, cmpd/DMSO (mean): 1.0
[4]; 1% FBS, 10 uM
  Firefly, F4, 1% FBS, cmpd/DMSO (mean): 1.8
[4]; 1% FBS, 40 uM
  Firefly, F4, 1% FBS, cmpd/DMSO (mean): 2.2
[4]; 10% FBS, 0.5 uM
  Firefly, F4, 10% FBS, cmpd/DMSO (mean): 1.2
[4]; 10% FBS, 2 uM
  Firefly, F4, 10% FBS, cmpd/DMSO (mean): 1.1
[4]; 10% FBS, 10 uM
  Firefly, F4, 10% FBS, cmpd/DMSO (mean): 1.7

## CC(=O)N1CCN([C@H]2CS(=O)(=O)C[C@@H]2S(=O)(=O)c2ccc(F)c(C)c2)CC1 [Compound D116]
[1]; 0.5 uM
  Firefly LBD, cmpd/DMSO (mean): 0.9
[1]; 2 uM
  Firefly LBD, cmpd/DMSO (mean): 1.2
[1]; 10 uM
  Firefly LBD, cmpd/DMSO (mean): 1.1
[1]; 40 uM
  Firefly LBD, cmpd/DMSO (mean): 1.2
[2]; [5]
  fold induction at 0.5 µM: 1
[2]; [6]
  fold induction at 2 µM: 1.2
[2]; [7]
  fold induction at 10 µM: 1.1
[2]; [8]
  fold induction at 40 µM: 1.4
[2]; [9]
  fold induction at 0.5 µM: 1.6
[2]; [10]
  fold induction at 2 µM: 1
[2]; [11]
  fold induction at 10 µM: 1.7
[2]; [12]
  fold induction at 40 µM: 1.4
[2]; [13]
  fold induction at 0.5 µM: 1.1
[2]; [14]
  fold induction at 2 µM: 1.1
[2]; [15]
  fold induction at 10 µM: 1.4
[2]; [16]
  fold induction at 40 µM: 1.5
[3]; [17]
  fold induction at 0.5 µM: 1
  fold induction at 2 µM: 1.1
  fold induction at 10 µM: 1.1
  fold induction at 40 µM: 1.1
[3]; [18]
  fold induction at 0.5 µM: 1
  fold induction at 2 µM: 1.1
  fold induction at 10 µM: 1
  fold induction at 40 µM: 1.2
[3]; [19]
  fold induction at 0.5 µM: 0.8
  fold induction at 2 µM: 0.9
  fold induction at 10 µM: 0.9
  fold induction at 40 µM: 1.2
[4]; 0.5 uM
  Firefly F4, cmpd/DMSO (mean): 1.5
[4]; 2 uM
  Firefly F4, cmpd/DMSO (mean): 1.0
[4]; 10 uM
  Firefly F4, cmpd/DMSO (mean): 1.4
[4]; 40 uM
  Firefly F4, cmpd/DMSO (mean): 1.2
[4]; 1% FBS, 0.5 uM
  Firefly, F4, 1% FBS, cmpd/DMSO (mean): 1.2
[4]; 1% FBS, 2 uM
  Firefly, F4, 1% FBS, cmpd/DMSO (mean): 0.9
[4]; 1% FBS, 10 uM
  Firefly, F4, 1% FBS, cmpd/DMSO (mean): 0.9
[4]; 1% FBS, 40 uM
  Firefly, F4, 1% FBS, cmpd/DMSO (mean): 1.1
[4]; 10% FBS, 0.5 uM
  Firefly, F4, 10% FBS, cmpd/DMSO (mean): 1.1
[4]; 10% FBS, 2 uM
  Firefly, F4, 10% FBS, cmpd/DMSO (mean): 1.4
[4]; 10% FBS, 10 uM
  Firefly, F4, 10% FBS, cmpd/DMSO (mean): 1.3
[4]; 10% FBS, 40 uM
  Firefly, F4, 10% FBS, cmpd/DMSO (mean): 0.8

— US11377442B2, “Small molecule agonists and antagonists of NR2F6 activity” (ZANDER THERAPEUTICS, INC., priority 2016, dated 2022)
